Data taken from patent US6737383B1, “Herbicidal oxadiazolidines” (priority 1999, dated 2004).

Assays:
wheat = assay: Test B pre/postemergence wheat; format: in vivo, Triticum aestivum
Outline: (§1)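 Herbicidal effect was estimated by eye on a ten-point control scale after plants spent twelve to sixteen days in a greenhouse following soil or foliar treatment. Foliar sprays targeted plants at one to four leaves; all doses were formulated in a non-phytotoxic solvent with surfactant.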

bedstraw = assay: Test B pre/postemergence bedstraw; format: in vivo, Galium aparine
Outline: as §1

sugar beet = assay: Test B pre/postemergence sugar beet; format: in vivo, Beta vulgaris
Outline: as §1

crabgrass = assay: Test B pre/postemergence crabgrass; format: in vivo, Digitaria sanguinalis
Outline: as §1

corn = assay: Test B pre/postemergence corn; format: in vivo, Zea mays
Outline: as §1

rape = assay: Test B pre/postemergence rape; format: in vivo, Brassica napus
Outline: as §1

purple nutsedge = assay: Test B pre/postemergence purple nutsedge; format: in vivo, Cyperus rotundus
Outline: as §1

surinam grass = assay: Test B pre/postemergence surinam grass; format: in vivo, Brachiaria decumbens
Outline: as §1

pigweed = assay: Test B pre/postemergence pigweed; format: in vivo, Amaranthus retroflexus
Outline: as §1

velvetleaf = assay: Test B pre/postemergence velvetleaf; format: in vivo, Abutilon theophrasti
Outline: as §1

morningglory = assay: Test B pre/postemergence morningglory; format: in vivo, Ipomoea hederacea
Outline: as §1

blackgrass = assay: Test B pre/postemergence blackgrass; format: in vivo, Alopecurus myosuroides
Outline: as §1

wild oat = assay: Test B pre/postemergence wild oat; format: in vivo, Avena fatua
Outline: as §1

soybean = assay: Test B pre/postemergence soybean; format: in vivo, Glycine max
Outline: as §1

giant foxtail = assay: Test B pre/postemergence giant foxtail; format: in vivo, Setaria faberii
Outline: as §1

cocklebur = assay: Test B pre/postemergence cocklebur; format: in vivo, Xanthium strumarium
Outline: as §1

[1] = Postemergence, Rate 62 g/ha, scale of 0 to 10, 0 is no effect, 10 is complete control
[2] = Preemergence, Rate 62 g/ha, scale 0 to 10 (0 no effect, 10 complete control)
[3] = Preemergence, Rate 125 g/ha, scale 0 to 10, 0 is no effect, 10 is complete control
[4] = Preemergence, Rate 500 g/ha, scale of 0 to 10 where 0 is no effect and 10 is complete control
[5] = Rate 250 g/ha, Postemergence, scale of 0 to 10 where 0 is no effect and 10 is complete control
[6] = Postemergence, Rate 125 g/ha, scale 0 to 10, 0 is no effect, 10 is complete control
[7] = Postemergence, Rate 500 g/ha, scale 0 to 10, 0 is no effect, 10 is complete control

Compound: CC(C)N(C(=O)n1oc(=O)n(CCC(F)(F)F)c1=O)c1ccc(Cl)cc1 [Compound 554]
- Wheat plant response rating (wheat; [1]): 0
- Wheat plant response rating (wheat; [2]): 3
- Wheat plant response rating (wheat; [3]): 3
- Wheat plant response rating (wheat; [4]): 6
- Plant response rating, Wheat (wheat; [5]): 2
- Bedstraw plant response rating (bedstraw; [1]): 5
- Bedstraw plant response rating (bedstraw; [6]): 5
- Plant response rating, Bedstraw (bedstraw; [7]): 9
- Bedstraw plant response rating (bedstraw; [2]): 0
- Bedstraw plant response rating (bedstraw; [3]): 0
- Bedstraw plant response rating (0 to 10 scale) (bedstraw; Preemergence, Rate 250 g/ha): 0
- Bedstraw plant response rating (bedstraw; [4]): 0
- Plant response rating, Bedstraw (bedstraw; [5]): 7
- Sugarbeets plant response rating (sugar beet; [1]): 0
- Sugarbeets plant response rating (sugar beet; [2]): 0
- Sugarbeets plant response rating (sugar beet; [3]): 0
- Sugarbeets plant response rating (0 to 10 scale) (sugar beet; Preemergence, Rate 250 g/ha): 0
- Sugarbeets plant response rating (sugar beet; [4]): 6
- Plant response rating, Sugarbeets (sugar beet; [5]): 7
- Crabgrass plant response rating (crabgrass; [1]): 0
- Plant response rating, Crabgrass (crabgrass; [7]): 9
- Crabgrass plant response rating (crabgrass; [2]): 9
- Crabgrass plant response rating (crabgrass; [3]): 10
- Crabgrass plant response rating (crabgrass; [4]): 10
- Plant response rating, Crabgrass (crabgrass; [5]): 9
- Corn plant response rating (corn; [1]): 0
- Corn plant response rating (corn; [6]): 0
- Plant response rating, Corn (corn; [7]): 0
- Corn plant response rating (corn; [2]): 0
- Corn plant response rating (corn; [3]): 0
- Corn plant response rating (0 to 10 scale) (corn; Preemergence, Rate 250 g/ha): 0
- Corn plant response rating (corn; [4]): 2
- Plant response rating, Corn (corn; [5]): 0
- Rape plant response rating (rape; [1]): 0
- Rape plant response rating (rape; [6]): 0
- Plant response rating, Rape (rape; [7]): 3
- Rape plant response rating (rape; [2]): 0
- Rape plant response rating (rape; [3]): 0
- Rape plant response rating (0 to 10 scale) (rape; Preemergence, Rate 250 g/ha): 0
- Rape plant response rating (rape; [4]): 3
- Plant response rating, Rape (rape; [5]): 0
- Nutsedge plant response rating (purple nutsedge; [1]): 0
- Nutsedge plant response rating (purple nutsedge; [6]): 0
- Plant response rating, Nutsedge (purple nutsedge; [7]): 0
- Nutsedge plant response rating (purple nutsedge; [2]): 0
- Nutsedge plant response rating (purple nutsedge; [3]): 0
- Nutsedge plant response rating (0 to 10 scale) (purple nutsedge; Preemergence, Rate 250 g/ha): 0
- Nutsedge plant response rating (purple nutsedge; [4]): 0
- Plant response rating, Nutsedge (purple nutsedge; [5]): 0
- B. signalgrass plant response rating (surinam grass; [1]): 0
- B. signalgrass plant response rating (surinam grass; [6]): 0
- Plant response rating, B. signalgrass (surinam grass; [7]): 3
- B. signalgrass plant response rating (surinam grass; [2]): 7
- B. signalgrass plant response rating (surinam grass; [3]): 7
- B. signalgrass plant response rating (0 to 10 scale, 0 is no effect, 10 is complete control) (surinam grass; Preemergence, Rate 250 g/ha): 6
- B. signalgrass plant response rating (surinam grass; [4]): 10
- Plant response rating, B. signalgrass (surinam grass; [5]): 0
- Redroot pigweed plant response rating (pigweed; [1]): 0
- Redroot pigweed plant response rating (pigweed; [2]): 9
- Redroot pigweed plant response rating (pigweed; [4]): 10
- Plant response rating, Redroot pigweed (pigweed; [5]): 7
- Velvetleaf plant response rating (velvetleaf; [1]): 0
- Plant response rating, Velvetleaf (velvetleaf; [7]): 0
- Velvetleaf plant response rating (velvetleaf; [2]): 0
- Velvetleaf plant response rating (velvetleaf; [3]): 0
- Velvetleaf plant response rating (0 to 10 scale) (velvetleaf; Preemergence, Rate 250 g/ha): 0
- Velvetleaf plant response rating (velvetleaf; [4]): 0
- Plant response rating, Velvetleaf (velvetleaf; [5]): 0
- Morningglory plant response rating (morningglory; [1]): 1
- Morningglory plant response rating (morningglory; [6]): 2
- Plant response rating, Morningglory (morningglory; [7]): 7
- Morningglory plant response rating (morningglory; [3]): 0
- Morningglory plant response rating (0 to 10 scale) (morningglory; Preemergence, Rate 250 g/ha): 0
- Morningglory plant response rating (morningglory; [4]): 0
- Plant response rating, Morningglory (morningglory; [5]): 5
- Blackgrass plant response rating (blackgrass; [1]): 0
- Blackgrass plant response rating (blackgrass; [6]): 3
- Blackgrass plant response rating (blackgrass; [3]): 4
- Blackgrass plant response rating (0 to 10 scale) (blackgrass; Preemergence, Rate 250 g/ha): 4
- Blackgrass plant response rating (blackgrass; [4]): 7
- Plant response rating, Blackgrass (blackgrass; [5]): 7
- Wild oats plant response rating (wild oat; [1]): 0
- Wild oats plant response rating (wild oat; [2]): 0
- Wild oats plant response rating (wild oat; [3]): 2
- Wild oats plant response rating (0 to 10 scale) (wild oat; Preemergence, Rate 250 g/ha): 2
- Wild oats plant response rating (wild oat; [4]): 9
- Plant response rating, Wild oats (wild oat; [5]): 2
- Soybean plant response rating (soybean; [1]): 2
- Plant response rating, Soybean (soybean; [7]): 3
- Soybean plant response rating (soybean; [2]): 0
- Soybean plant response rating (soybean; [3]): 0
- Soybean plant response rating (0 to 10 scale) (soybean; Preemergence, Rate 250 g/ha): 3
- Soybean plant response rating (soybean; [4]): 3
- Plant response rating, Soybean (soybean; [5]): 3
- Giant foxtail plant response rating (giant foxtail; [1]): 2
- Giant foxtail plant response rating (giant foxtail; [6]): 6
- Plant response rating, Giant foxtail (giant foxtail; [7]): 8
- Giant foxtail plant response rating (giant foxtail; [2]): 9
- Giant foxtail plant response rating (giant foxtail; [3]): 9
- Giant foxtail plant response rating (0 to 10 scale) (giant foxtail; Preemergence, Rate 250 g/ha): 9
- Giant foxtail plant response rating (giant foxtail; [4]): 10
- Plant response rating, Giant foxtail (giant foxtail; [5]): 8
- Cocklebur plant response rating (cocklebur; [1]): 0
- Cocklebur plant response rating (cocklebur; [6]): 0
- Plant response rating, Cocklebur (cocklebur; [7]): 3
- Cocklebur plant response rating (cocklebur; [2]): 0
- Cocklebur plant response rating (cocklebur; [3]): 0
- Cocklebur plant response rating (0 to 10 scale) (cocklebur; Preemergence, Rate 250 g/ha): 0
- Cocklebur plant response rating (cocklebur; [4]): 0
- Plant response rating, Cocklebur (cocklebur; [5]): 0
